Earlier results on one compound are cited in PMC9863691, “A Novel Ferroptosis Inhibitor UAMC-3203, a Potential Treatment for Corneal Epithelial Wound” (Pharmaceutics, 2022).

SMILES strings stand for the structures. pIC50: −log10 of the molar value.

In data set [1] the test system is ferroptosis. Details: method as in PMID 30354101. Conditions: read-out: in vitro potency IC50 (ferroptosis); cited from earlier work.
In data set [2] the test system is human corneal epithelial cell line. More on the design: method as in PMID 34535730. Conditions: after exposure to cigarette smoke and heated tobacco products; cited from earlier work.
The conditions of data set [3]: human, microsomes; cited from earlier work.

One may read the pIC50 as the negative decadic logarithm of the IC50, by convention in mol/L. With `CCOC(=O)c1ccc(NC2CCCCC2)c(N)c1` [Fer-1, Ferrostatin-1, reference compound], the pIC50 in data set [1] was 7.48. For the same compound, the “effect on cell death and cell viability” value in data set [2] is “reduced cell death and improved cell viability”. For the same compound, in data set [3], the “t1/2 in human microsome” value is 6 min.
